Source: paper PMC10827914 (Cellular and Molecular Life Sciences: CMLS, 2024)

Legend:
WEHI-164 fibrosarcoma = assay: Antitumor activity in WEHI-164 fibrosarcoma-bearing mice; format: in vivo
Description: Female BALB/c mice (Charles River Laboratories, Calco, Italy), weighing 16–18 g, were subcutaneously injected into the left flank of 10^6 WEHI-164 cells (ATCC, cat. CRL-1751, Lot. 63,682,839). Dose-finding experiments were performed with groups of six mice treated with G4-TNF (4, 20, or 100 pg/dose in 100 μL of 0.9% sodium chloride containing 100 µg/ml HSA, intraperitoneally injected on day 5) or vehicle. Tumor growth was monitored daily by measuring tumor volume with calipers, as previously described. The animals were sacrificed before the tumor diameter reached 1.0–1.5 cm. To test whether the antitumor activity of G4-TNF was mediated by CD13, tumor-bearing mice (6 animals/group) were treated with a single injection of G4-TNF (100 pg/dose, i.p.) in combination with peptide CNGRC (100 µg/dose) or anti-CD13 mAb R3-63 (25 µg/dose, given 1.5 h i.p. before administration of G4-TNF) 5 days after tumor implantation.
Fig. 3 Effect of G4-TNF on tumor growth and body weight of mice bearing WEHI-164 fibrosarcomas. A Mice bearing subcutaneous WEHI-164 tumors (5–6 mice/groups) were treated 5 days after tumor implantation with a single intraperitoneal injection of G4-TNF (0, 4, 20, or 100 pg). Tumor volume and body weight after treatment were monitored daily. B Effect of mAb R3-63 (anti-murine CD13 antibody, 25 µg) and CNGRC peptide (100 µg) on the antitumor activity of G4-TNF (100 pg) (5–6 mice/group). The arrows indicate the time of treatment. *P < 0.05; **P < 0.01, by Mann–Whitney analysis of the area under the curve for each tumor, with the GraphPad Prism software (mean ± SEM)
A) Mice bearing subcutaneous WEHI-164 tumors (6 mice/groups), were treated 5-6 days after tumor implantation with a single intraperitoneal injection of murine NGR-TNF (0, 25, 50, or 100 pg). Tumor volume and body weight after treatment were monitored daily.
B) Effect of murine TNF (50 pg) on tumor growth and body weight. The arrows indicate the time of treatment (mean ± SEM).

HUVEC = assay: Cytotoxicity assay on adherent and non-adherent HUVEC; format: cell-based, human; details: adherent and non-adherent cells, concentrations lower than 100 pg/ml, 24 h, MTT
Description: The supernatant was removed using a Pasteur pipet connected to a vacuum pump, and 200 µL of dimethyl sulfoxide was then added to each well to dissolve the formazan crystals. The absorbance at 570 nm was then read using a microtiter plate reader.
The cytotoxicity assay with cell in suspension was carried out following the same protocol except that the overnight incubation of the microtiter plate after cell plating was omitted.

CD13 expressed in HUVEC = assay: Inhibition of cell-associated CD13 enzymatic activity, HUVEC; format: cell-based, human; details: 3 × 10^5 cells/well, L-alanine p-nitroanilide, 30 min, 37 °C, absorbance 405 nm
Description: (§1) Fig. 5 Quantification of CD13 expressed by HL-60 and HUVEC by western blotting and FACS analyses, and determination of their enzymatic activity. A Western blotting (WB) analysis of CD13 expression in HL-60 cells and HUVEC. For both cell lines, 2 µg of cell lysates were loaded in each well (n = 4–5 replicates, as indicated). After blotting, the membrane was cut and analyzed for CD13 and actin expression as described in Material and methods. The results of one representative experiment, out of three independent experiments performed, are shown (bars, ratio of CD13/actin band intensity, mean ± SEM). Recombinant human CD13 (rCD13) (20 ng) was loaded as positive control. MW, molecular weight markers. B FACS analysis of CD13 expression in HUVEC and HL-60 cells. The cells were incubated with mAb WM15 (10 μg/mL) and stained with a FITC-labeled goat anti-mouse IgG (H + L) secondary antibody. Data were expressed as fluorescence intensity and normalized to the number of cells. The cumulative results of three independent experiments are shown (each performed in duplicate; mean ± SEM). C Enzyme activity assay of CD13 expressed in HUVEC and HL-60 cells. […] Absorbance at 405 nm was measured using a plate reader. The enzyme units in each sample were calculated using rCD13 as a standard and were normalized to the number of cells. […] The absorbance was measured at 405 nm using a plate reader. […]

[1] = system: CD13 expressed in HL-60 cells; assay: Inhibition of cell-associated CD13 enzymatic activity, HL-60 cells; format: cell-based, human; details: 3 × 10^5 cells/well, L-alanine p-nitroanilide, 30 min, 37 °C, absorbance 405 nm
Description: as §1

VGCARRYCS-TNF [G4-TNF, recombinant murine TNF fused to the C-terminus of G4]
Body weight and clinical signs of toxicity (WEHI-164 fibrosarcoma; mice after treatment with 4, 20 or 100 pg i.p.): No loss of body weight and no other clinical signs of toxicity
Antitumor effect (tumor growth) (WEHI-164 fibrosarcoma; single intraperitoneal injection of 100 pg, 5 days after tumor implantation): significant antitumor effects
Cytotoxic effects on HUVEC (in words) (HUVEC): No or minimal cytotoxic effects
Inhibition of CD13 enzymatic activity associated with HUVEC (in words) (CD13 expressed in HUVEC): did not inhibit
Inhibition of CD13 enzymatic activity associated with HL-60 cells (in words) [1]: did not inhibit
